# US6348483B1, “Use of derivatives of methylene-bis-oxazolidine and compositions obtained thereby” (Air Liquide Sante (International), priority 1998, dated 2002)
# Experiments:
# Format in all cases: cell-based
# Bacteria suspension = assay: Boko test in water-diluted cutting fluids, bacteria suspension
# Description: (§1) In separate batches, in each case 100 ml of the water-diluted cutting fluid to be preserved were admixed with various concentrations of the preservatives to be examined. The growth control used was in each case an unpreserved sample. Two days after the incorporation of the preservatives, the test batches were infected for the first time using 1 ml of an inoculating solution. The inoculating solution used was a suspension of the germs listed below (cultivated on nutrient media and then adapted to water-diluted cutting fluids). […] [table] The test batches were subsequently inoculated two times a week and plated onto agar plates two times per week, the first smear being carried out immediately prior to the new inoculation. The microbial growth on the smears was assessed after incubation at 25° C. for three days. […] The preservative effect of the individual product concentrations was assessed in a semiquantitative method by the colonization of the individual smears using the classification from − to +to +++. Growth was differentiated according to bacteria, yeasts and moulds. The test was usually carried out for twelve inoculation cycles or interrupted after repeated +++growth. The cutting fluids Shell Dromus BX or Almasol EP from Castrol or Rondocor Kompakt from Consulta were examined as 4% strength by weight emulsions in tap water from the city of Norderstedt. Inoculation was carried out using a suspension of bacteria or fungi or a mixed suspension of bacteria and fungi.
# Aspergillus niger (AN) [1] = assay: Fungicidal finish (SM 022) of pure acrylate house paint; conditions: for Fungicidal finish, colonization rating AN: without stress due to 72 hours leaching (so in the source)
# Description: (§2) In separate batches, the test concentrations of the active compounds/products were incorporated into the house paint, and the fungicidal and/or algistatic finish was determined using the stated test methods.
# (§3) Incorporation and testing were carried out according to the methods SM 022 and SM 023 below.
# (§4) This laboratory method was used to determine the resistance of house coatings to fungal attack. For the method, house coatings on standardized paper were used as test substrate, and Aspergillus niger (ATCC 6275) and Penicillium funiculosum (ATCC 36839) were used as test fungi. The experiments were carried out in Petri dishes on dextrose nutrient medium.
# (§5) 50 g of the material to be finished were, in separate batches, mixed with various concentrations of the fungicide to be examined and homogenized for 3-5 min using a basket stirrer.
# (§6) Paper carrier materials having the dimensions 90×270 mm (Schleicher & Schüll No. 2589 B/X 24078) were coated with the test material. The paint and/or render samples were coated to a wet-layer thickness of 250 μm by knife coating. […] In the case of renders, the layer thickness depended, as in practice, on the particle size. The coated carrier materials, hereinbelow referred to as test bodies, were subsequently dried in a horizontal position for five days.
# The test bodies were watered in running tap water of 15±5° C. and a flow rate of 1 l/min for 72 hours and subsequently dried for two days. The cross section of the container for the watering in the direction of flow was 1000±500 cm^2.
# (§7) From the pretreated test bodies, sample bodies having a diameter of 5 cm were punched out and sterilized in a Co^60 source using at least 10 kGy.
# (§8) The Sabouraud dextrose agar, which had solidified in the Petri dish, was inoculated with 0.2 ml of spore suspension (10^7 spores/ml) and plated out using a sterile Drigalski spatula or an offset sterile glass rod.
# (§9) The pretreated sample bodies were then evenly placed onto the inoculated surface of the nutrient medium using a pair of tweezers, making sure that the entire surface of the sample body was in contact with the surface of the nutrient medium. The sample was subsequently incubated at 30±2° C. for three weeks. For other test germs, the incubation temperature had to be adapted to achieve optimum growth.
# (§10) After one, two and three weeks, the sample bodies were examined for fungal growth. Evaluation was carried out visually or—if this was required to exclude foreign infections—using a magnifying glass. If the extent of the colonization by foreign organisms observed considerably interfered with the evaluation, the experiment could not be evaluated and was repeated. The evaluation of the samples was based on the following evaluation scale:
# (§11) 00—entire plate free from colonization*
# (§12) 0—zone formation (no colonization around the sample)*
# (§13) (0)—fungal colonization up to the sample*
# (§14) 1—only the sample edge is colonized*
# (§15) 2—the sample is colonized from the edge inwards (less than 25%)
# (§16) 3—the sample surface is colonized by individual colonies (25-75%)
# (§17) 4—the sample surface is colonized extensively (75% and more, but not the entire surface)
# (§18) 5—the sample surface is colonized completely (100%)
# (§19) *Note: Samples evaluated as 00, 0, (0) and 1 can be referred to as “being effectively finished against fungal growth”.
# [2] = test system: Penicillium funiculosum (PF); assay: as above; conditions: for Fungicidal finish, colonization rating PF: without stress due to leaching
# Description: as §2, §3, §4, §5, §6
# […] The cross section of the container for the watering in the direction of flow was 1000±500 cm^2.
# as §7, §8, §9, §10, §11, §12, §13, §14, §15, §16, §17, §18, §19
# Aspergillus niger (AN) [3] = assay: as above; conditions: without stress due to leaching
# [4] = test system: Mixed suspension of bacteria and fungi; assay: Boko test in water-diluted cutting fluids, mixed suspension
# Description: as §1
# [5] = Cutting fluid Almasol EP, use concentration 0.05% by weight
# [6] = Cutting fluid Almasol EP, use concentration 0.10% by weight
# [7] = Cutting fluid Almasol EP, use concentration 0.15% by weight
# [8] = Cutting fluid Rondocor Kompakt, use concentration 0.05% by weight
# [9] = Cutting fluid Rondocor Kompakt, use concentration 0.10% by weight
# [10] = Cutting fluid Rondocor Kompakt, use concentration 0.15% by weight
# [11] = Cutting fluid Shell Dromus BX, use concentration 0.05% by weight
# [12] = Cutting fluid Shell Dromus BX, use concentration 0.10% by weight
# [13] = Cutting fluid Shell Dromus BX, use concentration 0.15% by weight
smiles,measurement,setting,value
"CC1CN(CN2COC(C)C2)CO1 (centres unmarked) [Mar 71, 3,3′-methylenebis-(5-methyloxazolidine)]",Number of inoculation cycles passed on inoculation with Bacteria suspension,Bacteria suspension; [5],>12
same,Number of inoculation cycles passed on inoculation with Bacteria suspension,Bacteria suspension; [6],>12
same,Number of inoculation cycles passed on inoculation with Bacteria suspension,Bacteria suspension; [7],>12
same,Number of inoculation cycles passed on inoculation with Bacteria suspension,Bacteria suspension; [8],>12
same,Number of inoculation cycles passed on inoculation with Bacteria suspension,Bacteria suspension; [9],>12
same,Number of inoculation cycles passed on inoculation with Bacteria suspension,Bacteria suspension; [10],>12
same,Number of inoculation cycles passed on inoculation with Bacteria suspension,Bacteria suspension; [11],>12
same,Number of inoculation cycles passed on inoculation with Bacteria suspension,Bacteria suspension; [12],>12
same,Number of inoculation cycles passed on inoculation with Bacteria suspension,Bacteria suspension; [13],>12
same,"Fungicidal activity (in words), AN",Aspergillus niger (AN) [1]; house paint test,no fungicidal activity in practice
same,"Fungicidal finish, colonization rating AN","Aspergillus niger (AN) [1]; use conc. 0.5% W/W, 1. week",5 (the sample surface is colonized completely (100%))
same,"Fungicidal finish, colonization rating AN","Aspergillus niger (AN) [1]; use conc. 0.5% W/W, 2. week",5 (the sample surface is colonized completely (100%))
same,"Fungicidal finish, colonization rating AN","Aspergillus niger (AN) [1]; use conc. 1.0% W/W, 1. week",5 (the sample surface is colonized completely (100%))
same,"Fungicidal finish, colonization rating AN","Aspergillus niger (AN) [1]; use conc. 1.0% W/W, 2. week",5 (the sample surface is colonized completely (100%))
same,"Fungicidal finish, colonization rating AN","Aspergillus niger (AN) [1]; use conc. 2.0% W/W, 1. week",5 (the sample surface is colonized completely (100%))
same,"Fungicidal finish, colonization rating AN","Aspergillus niger (AN) [1]; use conc. 2.0% W/W, 2. week",5 (the sample surface is colonized completely (100%))
same,"Fungicidal activity (in words), PF",[2]; house paint test,no fungicidal activity in practice
same,"Fungicidal finish, colonization rating PF","[2]; use conc. 0.5% W/W, 1. week",5 (the sample surface is colonized completely (100%))
same,"Fungicidal finish, colonization rating PF","[2]; use conc. 0.5% W/W, 2. week",5 (the sample surface is colonized completely (100%))
same,"Fungicidal finish, colonization rating PF","[2]; use conc. 1.0% W/W, 1. week",5 (the sample surface is colonized completely (100%))
same,"Fungicidal finish, colonization rating PF","[2]; use conc. 1.0% W/W, 2. week",5 (the sample surface is colonized completely (100%))
same,"Fungicidal finish, colonization rating PF","[2]; use conc. 2.0% W/W, 1. week",3 (the sample surface is colonized by individual colonies (25%-75%))
same,"Fungicidal finish, colonization rating PF","[2]; use conc. 2.0% W/W, 2. week","4 (the sample surface is colonized extensively (75% and more, but not the entire surface))"
same,"Fungicidal finish, colonization rating AN","Aspergillus niger (AN) [3]; use conc. 0.5% W/W, 1. week",5 (the sample surface is colonized completely (100%))
same,"Fungicidal finish, colonization rating AN","Aspergillus niger (AN) [3]; use conc. 0.5% W/W, 2. week",5 (the sample surface is colonized completely (100%))
same,"Fungicidal finish, colonization rating AN","Aspergillus niger (AN) [3]; use conc. 1.0% W/W, 1. week",5 (the sample surface is colonized completely (100%))
same,"Fungicidal finish, colonization rating AN","Aspergillus niger (AN) [3]; use conc. 1.0% W/W, 2. week",5 (the sample surface is colonized completely (100%))
same,"Fungicidal finish, colonization rating AN","Aspergillus niger (AN) [3]; use conc. 2.0% W/W, 1. week",5 (the sample surface is colonized completely (100%))
same,"Fungicidal finish, colonization rating AN","Aspergillus niger (AN) [3]; use conc. 2.0% W/W, 2. week",5 (the sample surface is colonized completely (100%))
same,Number of inoculation cycles passed on inoculation with Mixed suspension,[4]; [5],11
same,Number of inoculation cycles passed on inoculation with Mixed suspension,[4]; [6],>12
same,Number of inoculation cycles passed on inoculation with Mixed suspension,[4]; [7],11
same,Number of inoculation cycles passed on inoculation with Mixed suspension,[4]; [8],>12
same,Number of inoculation cycles passed on inoculation with Mixed suspension,[4]; [9],>12
same,Number of inoculation cycles passed on inoculation with Mixed suspension,[4]; [10],>12
same,Number of inoculation cycles passed on inoculation with Mixed suspension,[4]; [11],4
same,Number of inoculation cycles passed on inoculation with Mixed suspension,[4]; [12],11
same,Number of inoculation cycles passed on inoculation with Mixed suspension,[4]; [13],>12
